“And” between values parts separate entries of the source, which are not always exact repeats. Identical values can stand only once.
Experiments:
PDK3 [1] = target: T1, PDK3 (Homo sapiens, UniProt Q15120); test: Fluorescence binding (quenching, modified Stern-Volmer); settings: PDK3 4 μM, modified Stern-Volmer equation; read-out: Binding constant (K) from fluorescence studies (converted)
T1 construct: made in house
Description: The binding affinity of ligands to PDK3 was analyzed by monitoring changes in the fluorescence emission intensity of protein [33]. Fluorescence measurements were carried out on the Jasco spectrofluorimeter (FP-6200, Japan). The experimental parameters were, λexc as 280 nm and λem in the range of 300–400 nm with slit width: 10 nm and medium sensitivity. All the measurements were carried out in triplicates and blank subtracted spectra were reported. The observed fluorescence values were corrected for the inner filter effect. Protein was titrated with an increasing concentration of ligands and each titration of protein. A decrease in the fluorescence intensity was mathematically evaluated using the modified Stern-Volmer equation [35] to estimate the binding parameters for hordenine-PDK3 interaction.
To measure the actual binding affinity of hordenine to PDK3, fluorescence binding studies were performed as described. […] The decrease in fluorescence intensity was mathematically analyzed using a double log relation (modified Stern−Volmer equation) to find the value of binding constant (K).

PDK3 [2] = target: T1, PDK3; test: Enzyme inhibition assay (ATPase, malachite green); assay type: biochemical; settings: ATP 200 µM, PDK3 4 µM, 25 °C, 1 h; AAT Bioquest calculator
Description: Following our published protocols, an enzyme inhibition assay was carried out. Freshly prepared ATP (200 µM) was added to PDK3 (4 µM) and final reaction mixture of 100 μL was incubated at 25 °C for 1 h. Malachite green (200 μL) was further added to the reaction mixture to stop the reaction followed by incubation of samples at room temperature for 20–25 min for the development of color. From the final reaction mixture, 100 μL was transferred to a 96-well plate in triplicate to measure spectrophotometrically at 620 nm.
To further validate our fluorescence-based binding studies, an enzyme inhibition assay was carried out with increasing concentrations of hordenine to check the kinase inhibitory potential. The kinase activity was quantified and plotted as percent inhibition. The kinase activity of PDK3 alone was taken as 100% for reference. It is clear from Figure 5 that with an increasing concentration of hordenine (0–13.75 µM), there was a dose-dependent decrease in PDK3 activity.

PDK3 [3] = target: T1, PDK3; test: Isothermal titration calorimetry; assay type: binding; settings: ITC 25 °C
Description: ITC measurements were carried out at 25 °C on a VP-ITC microcalorimeter from MicroCal, Inc (GE, MicroCal, Northampton, MA, USA). The purified protein was extensively dialyzed and degassed before use to avoid the bubble problem. DMSO was added in an equal amount to the protein solution (1% v/v) to prevent signal stability problems during ITC measurements. The first injection was a false one (2 μL) and then successive injections of 10 μL followed by the initial false injection. The sample cell contained PDK3 while the syringe was filled with the hordenine. Data analysis was carried out using the attached MicroCal Origin 8.0. The values (Ka, ΔH, ΔS) were calculated after curve fitting as described in our previous communications.
Thermodynamic parameters associated with the interaction of hordenine to PDK3 were measured by ITC as described. […] Various studies report different values of thermodynamic parameters obtained from fluorescence spectroscopy and ITC and this is because ITC measures a global change in the thermodynamic properties while fluorescence spectroscopy takes into account only the local changes around the fluorophore (Trp214). In the upper panel, raw data with negative heat pulses is shown which confirms exothermic binding. Binding curves found after subtraction of dilution heat of both ligands and protein are depicted in the bottom section. The obtained ITC isotherm advocates the spontaneous binding of hordenine with PDK3. The results presented were obtained from four site model fitting and thermodynamic parameters obtained for this interaction are presented in Table 1.

A549 cells = test: MTT cell viability assay, A549; assay type: cell-based; settings: Homo sapiens, 48 h, 0–200 μM, read-out: IC50, growth inhibition of A549 cells
Description: (§1) Cell cultures of H1299 and A549 cells were respectively maintained in RPMI-1640 and F12K cell growth medium, while HEK293 cells were maintained in DMEM (having 10% heat-inactivated FBS and 1% antibiotic-antimycotic solution) in a humidified CO2 incubator (5% CO2, 37 °C). These lung cancer cell lines were selected based on previous reports related to PDK3 [49]. Hordenine was evaluated for cell growth inhibition potential using the MTT assay as described. Briefly, the selected cells were plated in a 96-well culture plate (6000–7000 cells/well), and after 24 h cells were incubated with hordenine (0–200 μM) for 48 h. Following 48 h incubation of cells with hordenine, 25 µL MTT (from 5 mg/mL stock) was added and incubated for 4–5 h at 37 °C in a CO2 incubator. The resultant formazan was dissolved in 100 µL of DMSO and the absorbance was measured at 570 nm using a multiplate ELISA reader (BioRad). The percentage of cell viabilities was estimated using absorbance data and plotted as a function of hordenine concentration. Respective DMSO treatment was taken as vehicle control and subtracted from corresponding hordenine treatment groups, whereas for anticancer studies paclitaxel has been taken as a positive control.

H1299 cells = test: MTT cell viability assay, H1299; assay type: cell-based; settings: Homo sapiens, NCI-H1299, 48 h, 0–200 μM, read-out: IC50, growth inhibition of H1299 cells
Description: as §1

HEK293 cells = test: MTT cytotoxicity assay, HEK293; assay type: cell-based, human; settings: 48 h, concentration range 0–200 μM
Description: as §1

T1 sequence (Q15120 whole entry): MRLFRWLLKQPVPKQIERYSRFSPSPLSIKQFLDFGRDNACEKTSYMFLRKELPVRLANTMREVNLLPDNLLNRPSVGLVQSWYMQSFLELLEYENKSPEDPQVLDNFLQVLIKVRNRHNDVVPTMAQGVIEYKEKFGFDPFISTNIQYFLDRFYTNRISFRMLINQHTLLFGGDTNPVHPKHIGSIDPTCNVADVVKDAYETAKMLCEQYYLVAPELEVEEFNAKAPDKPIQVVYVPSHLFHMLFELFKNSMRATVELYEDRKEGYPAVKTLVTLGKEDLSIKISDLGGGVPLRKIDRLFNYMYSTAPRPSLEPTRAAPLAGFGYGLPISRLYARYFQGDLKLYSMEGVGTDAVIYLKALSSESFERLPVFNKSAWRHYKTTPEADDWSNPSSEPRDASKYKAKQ

CN(C)CCc1ccc(O)cc1 [hordenine, Hordenine]
Kd (PDK3 [1]): 1 µM and 2 µM
IC50 (PDK3 [2]): 5.4 µM
Kd (PDK3 [3]; 500 µM hordenine into 15 µM PDK3, four site model, site 1, read-out: Ka1 (Association Constant)): 51.3 µM
∆H1 (Enthalpy Change) (PDK3 [3]; four site model, site 1): ∆H1 = 4151 ± 1.2 × 10^3 cal/mol
∆S1 (PDK3 [3]; four site model, site 1): ∆S1 = 33.5 cal/mol/deg
∆H2 (Enthalpy Change) (PDK3 [3]; four site model, site 2): ∆H2 = −5.11 × 10^4 ± 4.18 × 10^3 cal/mol
∆S2 (PDK3 [3]; four site model, site 2): ∆S2 = −149 cal/mol/deg
Kd (PDK3 [3]; four site model, site 2, read-out: Ka2 (Association Constant)): 10.8 µM
∆H3 (Enthalpy Change) (PDK3 [3]; four site model, site 3): ∆H3 = 3.75 × 10^4 ± 5.20 × 10^3 cal/mol
∆S3 (PDK3 [3]; four site model, site 3): ∆S3 = 147 cal/mol/deg
Kd (PDK3 [3]; four site model, site 3, read-out: Ka3 (Association Constant)): 19.6 µM
∆H4 (Enthalpy Change) (PDK3 [3]; four site model, site 4): ∆H4 = −2.33 × 10^5 ± 1.03 × 10^4 cal/mol
∆S4 (PDK3 [3]; four site model, site 4): ∆S4 = −767 cal/mol/deg
Kd (PDK3 [3]; four site model, site 4 (printed Ka3), read-out: Ka3 (Association Constant), fourth line of the table): 400 µM
IC50 (A549 cells): 15 ± 2.13 µM
IC50 (H1299 cells): 21.3 ± 1.99 µM
Growth inhibition / cytotoxicity on HEK293 cells (HEK293 cells): did not inhibit the growth of HEK293 cells
